Target: T1, PCTAIRE1 (PCTK1/CDK16) (Homo sapiens, UniProt Q00536)
T1 construct: recombinant GST-fusion or His-tagged protein from human cDNA, expressed in Sf9 insect cells or E. coli; with CycY (cyclin Y)
Experiment: radiometric protein kinase assay ([…]PanQinase) with GSK3([…]-27) peptide substrate
Type: biochemical

T1 sequence (Q00536 whole entry, the tested form may be a part): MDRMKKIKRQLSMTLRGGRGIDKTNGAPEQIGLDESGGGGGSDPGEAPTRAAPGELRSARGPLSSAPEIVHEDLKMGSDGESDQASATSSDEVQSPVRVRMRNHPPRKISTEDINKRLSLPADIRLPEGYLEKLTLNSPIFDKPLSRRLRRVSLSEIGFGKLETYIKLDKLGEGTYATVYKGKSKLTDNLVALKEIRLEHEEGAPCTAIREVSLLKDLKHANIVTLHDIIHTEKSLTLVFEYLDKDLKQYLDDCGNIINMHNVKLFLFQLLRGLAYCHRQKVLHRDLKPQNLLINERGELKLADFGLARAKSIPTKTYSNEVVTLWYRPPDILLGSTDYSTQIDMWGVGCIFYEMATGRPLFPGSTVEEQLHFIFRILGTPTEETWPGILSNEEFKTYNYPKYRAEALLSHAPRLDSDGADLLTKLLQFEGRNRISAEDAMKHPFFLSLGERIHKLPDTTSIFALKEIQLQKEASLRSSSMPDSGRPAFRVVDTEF
T1 sequence (Q8ND76 2-341 partner): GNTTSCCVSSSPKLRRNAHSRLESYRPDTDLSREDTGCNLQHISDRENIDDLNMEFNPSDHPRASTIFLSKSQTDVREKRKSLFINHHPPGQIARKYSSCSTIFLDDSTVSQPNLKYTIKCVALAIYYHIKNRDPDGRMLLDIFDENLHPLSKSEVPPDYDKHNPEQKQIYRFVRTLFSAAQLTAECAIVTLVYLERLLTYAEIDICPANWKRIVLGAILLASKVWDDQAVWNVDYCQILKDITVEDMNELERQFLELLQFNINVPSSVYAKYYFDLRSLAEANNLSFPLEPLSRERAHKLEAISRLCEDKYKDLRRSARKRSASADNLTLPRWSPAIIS

O=C1Nc2ccccc2/C1=C1/Nc2ccccc2/C1=N\OCCC(O)CO (stereo not shown) [indirubin E804]
IC50: 0.053 µM

— PMC4381582, “RNA interference screening identifies a novel role for PCTK1/CDK16 in medulloblastoma with c-Myc amplification” (Oncotarget, 2014)
